Test system: crop and representative weed species
Assay: Example B2 herbicidal action post-emergence (Table B2)
Format: in vivo
Details: application post-emergence, rate 500 g/ha, evaluated after 15 days, score 10 to 0; for herbicidal damage score AMARE (10=total damage to plant; 0=no damage to plant): AMARE = Amaranthus retroflexus; for herbicidal damage score ECHCG (10=total damage to plant; 0=no damage to plant): ECHCG = Echinochloa crus-galli; for herbicidal damage score IPOHE (10=total damage to plant; 0=no damage to plant): IPOHE = Ipomea hederaceae; for herbicidal damage score SETFA (10=total damage to plant; 0=no damage to plant): SETFA = Setaria faberi
Protocol: Seeds of crop and representative weed species were sown in standard soil in pots. After cultivation for 14 days under controlled conditions in a glasshouse (at 22/16° C., day/night; 16 hours light; 65% humidity), the plants were sprayed. The spray solution was prepared by dissolving the technical active ingredient in acetone containing 10.56 wt % Emulsogen EL, 42.22 wt % N-methylpyrrolidone and 2.22 wt % DPG-monoethyl ether to give a 5% stock solution. This was then diluted with water containing 0.2% (v/v) of the adjuvant X-77 to give the desired treatment concentration.
The test plants were then grown on under controlled conditions in a glasshouse (at 22/16° C., day/night; 16 hours light; 65% humidity) and watered twice daily. After 15 days the test was evaluated and the assessed scores, from 10 to 0, are tabulated in Table B2 (10=total damage to plant; 0=no damage to plant).

| SMILES | herbicidal damage score AMARE (10=total damage to plant; 0=no damage to plant) | herbicidal damage score ECHCG (10=total damage to plant; 0=no damage to plant) | herbicidal damage score IPOHE (10=total damage to plant; 0=no damage to plant) | herbicidal damage score SETFA (10=total damage to plant; 0=no damage to plant) |
| --- | --- | --- | --- | --- |
| CC1(C)c2nccnc2C(O)=C(c2cc(F)ccc2Cl)S1(=O)=O [Compound F3] | 7 | 4 | 8 | 4 |
| C#CCC1(C)c2nccnc2C(O)=C(c2c(Cl)cccc2C(F)(F)F)S1(=O)=O (stereo not shown) [Compound F10, 7-(2-chloro-6-trifluoromethyl-phenyl)-5-methyl-6,6-dioxo-5-prop-2-ynyl-5,6-dihydro-6-thia-1,4-diaza-naphthalen-8-ol] | 8 | 7 | 9 | 8 |
| CCCC1c2nccnc2C(O)=C(c2c(F)ccc(Br)c2Cl)S1(=O)=O (stereo not shown) [Compound E22] | 7 | 0 | 7 | 2 |
| O=S1(=O)C(c2c(F)ccc(Br)c2Cl)=C(O)c2nccnc2C12CCCC2 [Compound F8] | 5 | 6 | 8 | 5 |

Source: patent publication US8569301B2, “6, 6-dioxo-6-thia-1, 4-diaza-naphthalenes as herbicides” (Syngenta Limited, priority 2009, dated 2013)
